Assay results taken from ChEMBL document CHEMBL5528083, “Discovery of a Novel Thienopyrimidine Compound as a Urate Transporter 1 and Glucose Transporter 9 Dual Inhibitor with Improved Efficacy and Favorable Druggability” (J Med Chem, 2024).

What was measured:
Mus musculus [1] = organism: Mus musculus; experiment: Reduction in serum uric acid level in acute hyperuricemia state Kunming mouse model assessed as SUA level by measuring decrease ratio relative to control; assay type: functional; parameters: concentration or dose not given beside the values
[2] = molecular target: T1, Solute carrier family 2, facilitated glucose transporter member 9 (Mus musculus) (UniProt Q3T9X0); experiment: Inhibition of mouse EGFP-tagged GLUT9 expressed in HEK293T cells assessed as inhibition rate by measuring relative current at 5 uM by patch clamp electrophysiological analysis relative to control; assay type: cell-based; parameters: scale not given: the % may be the effect or the level left
T1 sequence (whole entry): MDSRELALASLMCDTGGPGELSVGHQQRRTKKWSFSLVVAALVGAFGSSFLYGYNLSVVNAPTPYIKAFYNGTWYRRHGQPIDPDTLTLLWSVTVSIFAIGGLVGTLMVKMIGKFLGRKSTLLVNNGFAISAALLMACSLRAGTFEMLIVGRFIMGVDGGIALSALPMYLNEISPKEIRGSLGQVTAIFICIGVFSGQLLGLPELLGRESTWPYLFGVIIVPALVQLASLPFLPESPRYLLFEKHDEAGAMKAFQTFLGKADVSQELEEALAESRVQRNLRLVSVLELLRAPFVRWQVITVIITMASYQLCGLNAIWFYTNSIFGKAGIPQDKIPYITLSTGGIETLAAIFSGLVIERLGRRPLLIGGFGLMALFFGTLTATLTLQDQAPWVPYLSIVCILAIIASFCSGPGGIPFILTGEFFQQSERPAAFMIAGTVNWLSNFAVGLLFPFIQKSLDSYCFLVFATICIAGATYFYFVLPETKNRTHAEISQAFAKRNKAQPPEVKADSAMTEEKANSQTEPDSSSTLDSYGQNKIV

[3] = molecular target: Xanthine dehydrogenase/oxidase (Bos taurus, UniProt P80457); experiment: Inhibition of bovine XOD using xanthine as substrate assessed as inhibitory ratio at 10 uM by spectrophotometric analysis relative to control; conditions: cattle
Mus musculus [4] = experiment: Reduction in serum uric acid level in acute hyperuricemia state Kunming mouse model assessed as SUA level at 1 mg/kg, po (reference value: 1037 +/- 106.59 uM); assay type: functional
Mus musculus [5] = experiment: Reduction in serum uric acid level in acute hyperuricemia state Kunming mouse model assessed as SUA level by measuring decrease ratio at 1 mg/kg, po relative to control; assay type: functional; parameters: scale not given: the % may be the effect or the level left
Mus musculus [6] = experiment: Reduction in serum uric acid level in acute hyperuricemia state Kunming mouse model assessed as SUA level by measuring decrease ratio at 0.5 mg/kg, po relative to control; assay type: functional; parameters: scale not given: the % may be the effect or the level left
Rattus norvegicus [7] = experiment: Reduction in serum uric acid level in po dosed acute hyperuricemia state Sprague-Dawley rat model assessed as SUA level by measuring decrease ratio relative to control; assay type: functional; parameters: scale not given: the % may be the effect or the level left
Rattus norvegicus [8] = experiment: Potency index, ratio of compound to lesinurad for reduction in serum uric acid level in po dosed acute hyperuricemia state Sprague-Dawley rat model assessed as decrease ratio of SUA level; assay type: functional
Mus musculus [9] = organism: Mus musculus; experiment: Reduction in serum uric acid level in chronic hyperuricemia state Kunming mouse model assessed as SUA level (reference value: 660.33 +/- 103.57 uM); assay type: functional
Cytochrome P450 2C9 = Cytochrome P450 2C9 (Homo sapiens, UniProt P11712); experiment: Inhibition of CYP2C9 in human liver microsomes measured after 40 mins incubation by LC-MS/MS analysis; assay type: ADME, Microsome
Cytochrome P450 2D6 = Cytochrome P450 2D6 (Homo sapiens, UniProt P10635); experiment: Inhibition of CYP2D6 in human liver microsomes measured after 40 mins incubation by LC-MS/MS analysis; assay type: ADME, Microsome
Cytochrome P450 3A4 = Cytochrome P450 3A4 (Homo sapiens, UniProt P08684); experiment: Inhibition of CYP3A4 in human liver microsomes using midazolam measured after 40 mins incubation by LC-MS/MS analysis; assay type: ADME, Microsome
[10] = AUC (0 to t) in Sprague-Dawley rat at 2 mg/kg, po measured upto 24 hrs by LC-MS/MS-AR analysis; assay type: ADME, organism-based; conditions: in vivo
[11] = AUC (0 to infinity) in Sprague-Dawley rat at 2 mg/kg, po measured upto 24 hrs by LC-MS/MS-AR analysis; assay type: ADME, organism-based; conditions: in vivo
[12] = MRT (0 to infinity) in Sprague-Dawley rat at 2 mg/kg, po measured upto 24 hrs by LC-MS/MS-AR analysis; assay type: ADME, organism-based; conditions: in vivo
[13] = Half life in Sprague-Dawley rat at 2 mg/kg, po measured upto 24 hrs by LC-MS/MS-AR analysis; assay type: ADME, organism-based; conditions: in vivo
[14] = Cmax in Sprague-Dawley rat at 2 mg/kg, po measured upto 24 hrs by LC-MS/MS-AR analysis; assay type: ADME, organism-based; conditions: in vivo
[15] = Oral bioavailability in Sprague-Dawley rat at 2 mg/kg measured upto 24 hrs by LC-MS/MS-AR analysis; assay type: ADME, organism-based; conditions: in vivo
[16] = AUC (0 to t) in Sprague-Dawley rat at 2 mg/kg, iv measured upto 24 hrs by LC-MS/MS-AR analysis; assay type: ADME, organism-based; conditions: in vivo
[17] = AUC (0 to infinity) in Sprague-Dawley rat at 2 mg/kg, iv measured upto 24 hrs by LC-MS/MS-AR analysis; assay type: ADME, organism-based; conditions: in vivo
[18] = Half life in Sprague-Dawley rat at 2 mg/kg, iv measured upto 24 hrs by LC-MS/MS-AR analysis; assay type: ADME, organism-based; conditions: in vivo
[19] = Tmax in Sprague-Dawley rat at 2 mg/kg, iv measured upto 24 hrs by LC-MS/MS-AR analysis; assay type: ADME, organism-based; conditions: in vivo
[20] = Clearance in Sprague-Dawley rat at 2 mg/kg, iv measured upto 24 hrs by LC-MS/MS-AR analysis; assay type: ADME, organism-based; conditions: in vivo
[21] = Acute toxicity in Kunming mouse assessed as fatality rate at 1000 mg/kg, po administered as single dose monitored for 7 days; assay type: organism-based; conditions: in vivo, po, 1000 mg/kg, 168 h, time 7 day
[22] = Acute toxicity in Kunming mouse assessed as fatality rate at 500 mg/kg, po administered as single dose monitored for 7 days; assay type: organism-based; conditions: in vivo, po, 500 mg/kg, 168 h, time 7 day
[23] = Acute toxicity in Kunming mouse assessed as convulsions at 250 to 1000 mg/kg, po administered as single dose monitored for 7 days; assay type: organism-based; conditions: in vivo, 168 h, dose 250-1000 mg/kg, time 7 day
[24] = Acute toxicity in Kunming mouse assessed as lethargy at 250 to 1000 mg/kg, po administered as single dose monitored for 7 days; assay type: organism-based; conditions: in vivo, 168 h, dose 250-1000 mg/kg, time 7 day
[25] = Subacute toxicity in Kunming mouse assessed as abnormal behavior at 100 mg/kg, po administered every other day for 14 days; assay type: organism-based; conditions: in vivo, 336 h, time 14 day
[26] = Subacute toxicity in Kunming male mouse assessed as change in body weight at 100 mg/kg, po administered every other day for 14 days; assay type: organism-based; conditions: in vivo, 336 h, time 14 day
[27] = Subacute toxicity in Kunming female mouse assessed as change in body weight at 100 mg/kg, po administered every other day for 14 days; assay type: organism-based; conditions: in vivo, 336 h, time 14 day
[28] = Toxicity in Kunming female mouse assessed as renal injury at 100 mg/kg, po administered every other day for 14 days by H and E staining based assay; assay type: organism-based; conditions: in vivo, 336 h, time 14 day
[29] = Toxicity in Kunming female mouse assessed as coagulation necrosis of hepatocyte at 100 mg/kg, po administered every other day for 14 days by H and E staining based assay; assay type: organism-based; conditions: 336 h, time 14 day
[30] = Toxicity in Kunming female mouse assessed as balloon like degeneration of liver at 100 mg/kg, po administered every other day for 14 days by H and E staining based assay; assay type: organism-based; conditions: in vivo, 336 h, time 14 day

Sequence of Cytochrome P450 3A4 (P08684 whole entry): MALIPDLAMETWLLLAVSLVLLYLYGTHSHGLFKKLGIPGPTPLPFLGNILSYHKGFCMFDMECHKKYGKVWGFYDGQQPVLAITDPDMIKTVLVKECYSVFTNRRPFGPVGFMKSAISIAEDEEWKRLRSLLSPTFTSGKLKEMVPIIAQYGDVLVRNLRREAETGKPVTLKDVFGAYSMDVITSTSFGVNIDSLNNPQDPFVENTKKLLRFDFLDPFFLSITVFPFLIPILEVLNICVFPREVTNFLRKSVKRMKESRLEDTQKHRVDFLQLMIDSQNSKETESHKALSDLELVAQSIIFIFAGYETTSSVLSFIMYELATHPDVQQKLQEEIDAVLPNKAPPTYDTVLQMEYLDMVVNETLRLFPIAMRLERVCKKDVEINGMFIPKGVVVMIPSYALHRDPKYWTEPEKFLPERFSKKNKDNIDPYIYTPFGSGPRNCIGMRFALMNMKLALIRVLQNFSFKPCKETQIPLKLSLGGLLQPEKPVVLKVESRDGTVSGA
Sequence of Xanthine dehydrogenase/oxidase (P80457 whole entry): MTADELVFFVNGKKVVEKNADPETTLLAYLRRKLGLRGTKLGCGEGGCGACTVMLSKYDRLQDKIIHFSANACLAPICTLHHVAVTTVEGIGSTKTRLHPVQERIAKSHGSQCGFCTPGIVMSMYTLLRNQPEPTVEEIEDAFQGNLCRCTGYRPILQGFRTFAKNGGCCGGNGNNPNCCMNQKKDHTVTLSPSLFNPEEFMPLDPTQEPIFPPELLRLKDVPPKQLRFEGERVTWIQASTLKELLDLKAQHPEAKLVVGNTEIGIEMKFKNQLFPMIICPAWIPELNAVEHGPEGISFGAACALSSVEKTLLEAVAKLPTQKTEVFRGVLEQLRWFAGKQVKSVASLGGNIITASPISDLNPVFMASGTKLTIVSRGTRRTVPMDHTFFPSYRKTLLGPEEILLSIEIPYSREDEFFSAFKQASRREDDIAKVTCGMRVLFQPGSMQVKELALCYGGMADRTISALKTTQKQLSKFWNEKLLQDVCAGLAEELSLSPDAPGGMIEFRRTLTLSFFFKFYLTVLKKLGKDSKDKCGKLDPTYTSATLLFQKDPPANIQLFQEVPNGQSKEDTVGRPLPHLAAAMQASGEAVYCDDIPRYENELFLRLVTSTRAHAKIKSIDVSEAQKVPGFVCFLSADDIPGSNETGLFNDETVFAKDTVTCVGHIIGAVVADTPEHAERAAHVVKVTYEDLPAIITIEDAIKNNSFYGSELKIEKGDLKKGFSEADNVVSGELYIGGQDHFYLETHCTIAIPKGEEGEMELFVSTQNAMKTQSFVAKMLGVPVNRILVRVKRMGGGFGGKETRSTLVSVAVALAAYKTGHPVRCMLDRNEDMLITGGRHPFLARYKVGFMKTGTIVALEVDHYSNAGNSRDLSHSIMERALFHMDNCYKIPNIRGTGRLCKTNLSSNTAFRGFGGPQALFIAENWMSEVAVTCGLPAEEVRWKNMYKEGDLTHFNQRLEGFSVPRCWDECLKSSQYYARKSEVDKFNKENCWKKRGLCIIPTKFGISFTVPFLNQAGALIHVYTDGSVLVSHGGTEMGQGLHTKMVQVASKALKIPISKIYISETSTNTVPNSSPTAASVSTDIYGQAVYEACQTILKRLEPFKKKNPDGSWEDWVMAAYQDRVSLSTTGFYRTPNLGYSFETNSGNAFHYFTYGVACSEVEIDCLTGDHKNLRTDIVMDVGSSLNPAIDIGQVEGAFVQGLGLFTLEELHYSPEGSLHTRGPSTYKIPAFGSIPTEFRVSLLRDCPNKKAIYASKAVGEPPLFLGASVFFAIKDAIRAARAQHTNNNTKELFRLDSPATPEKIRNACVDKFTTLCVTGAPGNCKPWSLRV
Sequence of Cytochrome P450 2D6 (P10635 whole entry): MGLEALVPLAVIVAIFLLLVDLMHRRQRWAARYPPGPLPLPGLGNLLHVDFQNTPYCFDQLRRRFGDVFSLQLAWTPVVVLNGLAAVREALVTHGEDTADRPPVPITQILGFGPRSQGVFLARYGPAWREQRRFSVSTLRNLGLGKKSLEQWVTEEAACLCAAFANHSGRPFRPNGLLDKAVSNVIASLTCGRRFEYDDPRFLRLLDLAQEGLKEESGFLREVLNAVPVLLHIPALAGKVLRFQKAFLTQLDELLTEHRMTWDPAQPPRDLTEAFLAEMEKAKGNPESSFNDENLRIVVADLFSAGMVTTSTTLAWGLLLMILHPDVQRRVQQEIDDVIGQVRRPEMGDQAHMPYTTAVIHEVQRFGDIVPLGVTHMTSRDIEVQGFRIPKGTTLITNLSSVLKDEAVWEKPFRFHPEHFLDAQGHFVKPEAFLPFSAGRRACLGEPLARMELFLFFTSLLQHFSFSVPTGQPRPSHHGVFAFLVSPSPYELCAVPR
Sequence of Cytochrome P450 2C9 (P11712 whole entry): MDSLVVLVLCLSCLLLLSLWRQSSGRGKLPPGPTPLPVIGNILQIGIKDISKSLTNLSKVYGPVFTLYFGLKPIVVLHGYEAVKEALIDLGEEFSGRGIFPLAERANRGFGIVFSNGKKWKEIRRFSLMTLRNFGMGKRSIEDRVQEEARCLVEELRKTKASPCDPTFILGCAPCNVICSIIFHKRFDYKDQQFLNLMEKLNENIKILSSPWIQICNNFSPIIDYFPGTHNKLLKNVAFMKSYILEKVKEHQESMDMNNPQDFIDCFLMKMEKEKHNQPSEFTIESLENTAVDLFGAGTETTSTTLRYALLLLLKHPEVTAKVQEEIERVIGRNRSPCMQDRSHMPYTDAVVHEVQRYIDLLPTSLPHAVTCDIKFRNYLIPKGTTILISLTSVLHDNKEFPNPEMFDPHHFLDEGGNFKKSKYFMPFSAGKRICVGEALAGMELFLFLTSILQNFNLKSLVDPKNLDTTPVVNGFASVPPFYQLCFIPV

With `O=C(O)CCCSc1nc(Nc2ccc(C3CC3)c3ccccc23)c2sccc2n1` the Activity (Mus musculus [1]) was 93.2%, the Activity [2] was 69.7% and the inhibition at 10 µM [3] was 11.7%. It also gave an Activity (Mus musculus [4]) of 208.6 µM, an Activity (Mus musculus [5]) of 89.08% and an Activity (Mus musculus [6]) of 66.49%. The Activity (Rattus norvegicus [7]) was 90.12%, the Ratio (Rattus norvegicus [8]) was 1.8 and the Activity (Mus musculus [9]) was 241 µM. The IC50 (Cytochrome P450 2C9) was 2 µM, the IC50 (Cytochrome P450 2D6) was over 20 µM and the IC50 (Cytochrome P450 3A4) was over 20 µM. For the same molecule, the AUC(0-t) at 24 h [10] was 1810 ng·h/mL, the AUC [11] was 1929.1 ng·h/mL and the MRT inf [12] was 2.5 h. It also gave a half-life [13] of 1.8 h, a Cmax [14] of 1270 ng/mL and an F [15] of 20.1%. For the same molecule, the AUC(0-t) at 24 h [16] was 1900 ng·h/mL, the AUC [17] was 1922.9 ng·h/mL and the half-life [18] was 1.6 h. The Tmax [19] was 4.98 min, the clearance [20] was 17 mL/min/kg and the Activity [21] was “Non-Toxic”. For the same molecule, the Activity [22] was “Non-Toxic”, the Activity [23] was “Non-Toxic” and the Activity [24] was “Non-Toxic”. For the same molecule, the Activity [25] was “Non-Toxic”, the Activity [26] was “Toxic” and the Activity [27] was “Toxic”. The Activity [28] was “Toxic”, the Activity [29] was “Non-Toxic” and the Activity [30] was “Non-Toxic”.
